From patent EP0502110B1, “(HETERO) 4-ARYLMETHOXY PHENYL DIAZOLE DERIVATIVES, METHOD FOR PREPARING SAME, AND THEIR THERAPEUTICAL APPLICATIONS” (SYNTHELABO, priority 1989, dated 1991)

Experiments:
MAO-A = molecular target: T1, MAO-A (Rattus norvegicus, UniProt P21396); experiment: In vitro MAO activity assay, rat brain mitochondrial suspension, serotonin (5 HT) as substrate; format: biochemical; details: 20 min preincubation, substrate 5 HT, reaction time 40 min
T1 construct: en utilisant comme source d'enzyme une suspension mitochondriale du cerveau de rat; from tissue; host or cells: rat brain mitochondrial suspension
T1 sequence (P21396 1-526): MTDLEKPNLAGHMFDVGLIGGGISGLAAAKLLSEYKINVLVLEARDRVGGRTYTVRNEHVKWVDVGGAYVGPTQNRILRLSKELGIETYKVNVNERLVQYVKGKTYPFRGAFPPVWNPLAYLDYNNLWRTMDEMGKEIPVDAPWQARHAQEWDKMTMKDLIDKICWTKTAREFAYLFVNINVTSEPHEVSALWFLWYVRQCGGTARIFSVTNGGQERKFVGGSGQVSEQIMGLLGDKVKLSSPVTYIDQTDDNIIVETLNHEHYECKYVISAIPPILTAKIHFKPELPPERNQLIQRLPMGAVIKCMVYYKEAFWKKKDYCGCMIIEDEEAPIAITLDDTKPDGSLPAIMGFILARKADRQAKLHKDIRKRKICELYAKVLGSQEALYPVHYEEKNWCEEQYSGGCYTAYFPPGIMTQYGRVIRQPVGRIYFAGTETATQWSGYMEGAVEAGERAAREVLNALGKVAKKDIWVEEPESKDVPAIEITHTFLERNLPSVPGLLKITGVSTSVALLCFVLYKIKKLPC
Method: (§1) L'activité inhibitrice de la monoamine oxydase de ces composés a été mise en évidence par des mesures in vitro de la MAO.
(§2) Le dosage de l'activité de la MAO a été effectué en utilisant comme source d'enzyme une suspension mitochondriale du cerveau de rat. Le dosage standard consiste à préincuber l'enzyme pendant 20 minutes en absence, puis en présence des inhibiteurs. Les activités sont déterminées en utilisant la sérotonine (5 HT) et la phénéthylamine (PEA) comme substrats de la MAO-A et de la MAO-B, les temps de réaction étant de 40 minutes avec la 5 HT et de 10 minutes avec la PEA. Le mode opératoire mis en oeuvre est celui du protocole de P.C. Baker : Dev. Biol. 14, 267, 1966.
(§3) Les activités d'un certain nombre de composés selon l'invention vis-à-vis de la MAO-B et de la MAO-A sont données par leurs constantes d'inhibition Ki (MAO-B) et Ki(MAO-A) et sont rassemblées dans le tableau ci-après. TABLEAU

MAO-B = molecular target: T2, MAO-B (Rattus norvegicus, UniProt P19643); experiment: In vitro MAO activity assay, rat brain mitochondrial suspension, phenethylamine (PEA) as substrate; format: biochemical; details: 20 min preincubation, reaction time 10 min
T2 construct: en utilisant comme source d'enzyme une suspension mitochondriale du cerveau de rat; from tissue; host or cells: rat brain mitochondrial suspension
T2 sequence (P19643 1-520): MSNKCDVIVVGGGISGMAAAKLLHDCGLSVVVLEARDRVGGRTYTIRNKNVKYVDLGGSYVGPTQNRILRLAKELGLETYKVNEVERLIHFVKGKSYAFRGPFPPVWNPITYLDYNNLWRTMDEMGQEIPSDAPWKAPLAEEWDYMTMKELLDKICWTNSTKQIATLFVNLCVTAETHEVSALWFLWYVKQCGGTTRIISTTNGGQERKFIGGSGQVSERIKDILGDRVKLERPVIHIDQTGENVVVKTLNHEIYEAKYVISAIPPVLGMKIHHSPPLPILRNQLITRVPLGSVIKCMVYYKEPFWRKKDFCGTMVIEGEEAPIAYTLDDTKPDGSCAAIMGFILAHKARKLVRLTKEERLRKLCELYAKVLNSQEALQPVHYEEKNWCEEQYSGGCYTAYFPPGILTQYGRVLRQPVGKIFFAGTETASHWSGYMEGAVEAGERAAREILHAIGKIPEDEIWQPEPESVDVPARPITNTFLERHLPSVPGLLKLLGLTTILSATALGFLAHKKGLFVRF
Method: as §1, §2, §3

Row | Ki(MAO-A) (MAO-A) | Ki (MAO-B) | SMILES
1 | inactif | 15.6 nM | COCCn1nnc(-c2ccc(OCc3ccccc3)cc2)n1 [MD 230300, (benzyloxy-4 phényl)-5 méthoxyéthyl-2 2H tétrazole]
2 |  | 184 nM | COCCn1nnc(-c2ccc(OCc3ccc(Cl)cc3)cc2)n1 [MD 230305, [(chloro-4 benzyloxy)-4 phényl]-5 méthoxyéthyl-2 2H-tétrazole]
3 |  | 5 nM | COCCn1nc(-c2ccc(OCc3ccc(Cl)cc3)cc2)oc1=O [MD 230306, [(chloro-4 benzyloxy)-4 phényl]-5 méthoxyéthyl-3 3H oxadiazole-1,3,4 one-2]
4 |  | 35 nM | COCCn1nnc(-c2ccc(OCc3cccc(Cl)c3)cc2)n1 [MD 230324, [(chloro-3 benzyloxy)-4 phényl]-5 méthoxyéthyl-2 2H tétrazole]
